“And” between values parts separate entries of the source, which are not always exact repeats. Equal entries are not always repeated. Where two headings read alike, the source gives them in different places.
Legend:
PAMPA [1] = test system: PAMPA
[2] = PAMPA, permeability assay across an artificial membrane; details: for Diffusion (%): PAMPA percent diffusion; for Acceptor Concentration, Ave: after incubation; for Δ % diffusion: increase: difference between percent diffusion of macrocycle vs linear counterpart
PAMPA [3] = details: calculated using Supplement Equation 1, UV detection
PAMPA [4] = test system: PAMPA; remark: listed apart in the source
PAMPA [5] = details: UV detection
PAMPA [6] = test system: PAMPA; remark: listed apart in the source
[7] = calculated using Supplement Equation 1, UV detection
[8] = UV detection
[9] = PAMPA, (acceptor + donor)/total analyte, C0 500 uM
[10] = PAMPA, Papp, ratio-based method, mean ± SD, C0 500 uM, UV detection
[11] = PAMPA, Recovery (%), PAMPA, (acceptor + donor)/total analyte, C0 500 uM

CCCCC[C@@H]1OC(=O)[C@@H](C)N(C)C(=O)[C@H](CCCCC)OC(=O)[C@@H](C)N(C)C(=O)[C@H](CCCCC)OC(=O)[C@@H](C)N(C)C1=O [Compound C1.3, ent-verticilide B1]
Acceptor Concentration (PAMPA [1]; Acceptor Concentration (uM) – ELSD Detection / [row 1]): 102 µM
Acceptor Concentration (PAMPA [1]; Acceptor Concentration (uM) – ELSD Detection / [row 2]): 106 µM
Acceptor Concentration (PAMPA [1]; Acceptor Concentration (uM) – ELSD Detection / [row 3]): 96 µM
Acceptor Concentration (PAMPA [1]; Acceptor Concentration (uM) – ELSD Detection / [row 4]): 101 µM
Acceptor Concentration (PAMPA [1]; Acceptor Concentration (uM) – ELSD Detection / [row 5]): 106 µM
Acceptor Concentration (PAMPA [1]; Acceptor Concentration (uM) – ELSD Detection / [row 6]): 98.1 µM
Acceptor Concentration (PAMPA [1]; Acceptor Concentration (uM) – ELSD Detection / [row 7]): 103 µM
Acceptor Concentration (PAMPA [1]; Acceptor Concentration (uM) – ELSD Detection / [row 8]): 90.6 µM
Acceptor Concentration (PAMPA [1]; Acceptor Concentration (uM) – ELSD Detection / [row 9]): 103 µM
Acceptor Concentration (PAMPA [1]; Acceptor Concentration (uM) – ELSD Detection / [row 10]): 101 µM
Acceptor Concentration (PAMPA [1]; Acceptor Concentration (uM) – ELSD Detection / [row 11]): 96.3 µM
Acceptor Concentration (PAMPA [1]; Acceptor Concentration (uM) – ELSD Detection / [row 12]): 107 µM
Acceptor Concentration (PAMPA [1]; Acceptor Concentration (uM) – ELSD Detection / [row 13]): 112 µM
Acceptor Concentration (PAMPA [1]; Acceptor Concentration (uM) – ELSD Detection / [row 14]): 102 µM
Acceptor Concentration (PAMPA [1]; Acceptor Concentration (uM) – ELSD Detection / [row 15]): 94.9 µM
Acceptor Concentration (PAMPA [1]; Acceptor Concentration (uM) – UV Detection / [row 1]): 89.6 µM
Acceptor Concentration (PAMPA [1]; Acceptor Concentration (uM) – UV Detection / [row 2]): 100 µM
Acceptor Concentration (PAMPA [1]; Acceptor Concentration (uM) – UV Detection / [row 3]): 101 µM
Acceptor Concentration (PAMPA [1]; Acceptor Concentration (uM) – UV Detection / [row 4]): 93.8 µM
Acceptor Concentration (PAMPA [1]; Acceptor Concentration (uM) – UV Detection / [row 5]): 88.6 µM
Acceptor Concentration (PAMPA [1]; Acceptor Concentration (uM) – UV Detection / [row 6]): 79.9 µM
Acceptor Concentration (PAMPA [1]; Acceptor Concentration (uM) – UV Detection / [row 7]): 82.2 µM
Acceptor Concentration (PAMPA [1]; Acceptor Concentration (uM) – UV Detection / [row 8]): 95.3 µM
Acceptor Concentration (PAMPA [1]; Acceptor Concentration (uM) – UV Detection / [row 9]): 83.1 µM
Acceptor Concentration (PAMPA [1]; Acceptor Concentration (uM) – UV Detection / [row 10]): 88.1 µM
Acceptor Concentration (PAMPA [1]; Acceptor Concentration (uM) – UV Detection / [row 11]): 84 µM
Acceptor Concentration (PAMPA [1]; Acceptor Concentration (uM) – UV Detection / [row 12]): 81.4 µM
Acceptor Concentration (PAMPA [1]; Acceptor Concentration (uM) – UV Detection / [row 13]): 95.3 µM
Acceptor Concentration (PAMPA [1]; Acceptor Concentration (uM) – UV Detection / [row 14]): 92.2 µM
Acceptor Concentration (PAMPA [1]; Acceptor Concentration (uM) – UV Detection / [row 15]): 85.4 µM
Diffusion (%) ([2]; C0 500 uM): 18.04% and 18.0 ± 1.5%
Recovery (%) [2, 9]: 91%
Papp at 500 uM ([2]; PAMPA, Papp, Ave, ELSD detection, C0 500 uM): 4.24 ×10⁻⁶ cm/s
Papp at 500 uM [2, 10]: 3.64 ± 0.42 ×10⁻⁶ cm/s
recovery at 500 uM [2, 11]: 91.2%
Acceptor Concentration, Ave ([2]; PAMPA, ELSD detection, C0 500 uM): 101.2 µM
Acceptor Concentration, Ave ([2]; PAMPA, UV detection, C0 500 uM): 89.4 µM
Δ % diffusion [2]: ↑3%
%T (PAMPA [3]; Well 1 / %T, Well 1): 0.44% (2×) and 0.41%
%T (PAMPA [3]; Well 2 / %T, Well 2): 0.51% and 0.43% (2×)
%T (PAMPA [3]; Well 3 / %T, Well 3): 0.54% and 0.51% and 0.49%
%T (PAMPA [3]; Well 4 / %T, Well 4): 0.48% (2×) and 0.45%
%T (PAMPA [3]; Well 5 / %T, Well 5): 0.48% (2×) and 0.47%
donor concentration after incubation (PAMPA [4]; Well 1 / [donor]): 396 µM and 390 µM and 380 µM
donor concentration after incubation (PAMPA [4]; Well 2 / [donor]): 370 µM and 376 µM and 374 µM
donor concentration after incubation (PAMPA [4]; Well 3 / [donor]): 341 µM and 351 µM and 372 µM
donor concentration after incubation (PAMPA [4]; Well 4 / [donor]): 377 µM and 362 µM and 356 µM
donor concentration after incubation (PAMPA [4]; Well 5 / [donor]): 347 µM and 349 µM and 351 µM
% recovery (PAMPA [5]; Well 1 / %R, Well 1): 97% and 94% and 93%
% recovery (PAMPA [5]; Well 2 / %R, Well 2): 94% and 92%
% recovery (PAMPA [5]; Well 3 / %R, Well 3): 88% and 89% and 94%
% recovery (PAMPA [5]; Well 4 / %R, Well 4): 94% and 89% and 90%
% recovery (PAMPA [5]; Well 5 / %R, Well 5): 87%
Papp (PAMPA [6]; Papp (x 10^-6 cm/s) – ELSD Detection / [row 1], ELSD Detection): 4.16 ×10⁻⁶ cm/s
Papp (PAMPA [6]; Papp (x 10^-6 cm/s) – ELSD Detection / [row 2], ELSD Detection): 4.41 ×10⁻⁶ cm/s
Papp (PAMPA [6]; Papp (x 10^-6 cm/s) – ELSD Detection / [row 3], ELSD Detection): 3.96 ×10⁻⁶ cm/s
Papp (PAMPA [6]; Papp (x 10^-6 cm/s) – ELSD Detection / [row 4], ELSD Detection): 4.13 ×10⁻⁶ cm/s
Papp (PAMPA [6]; Papp (x 10^-6 cm/s) – ELSD Detection / [row 5], ELSD Detection): 4.45 ×10⁻⁶ cm/s
Papp (PAMPA [6]; Papp (x 10^-6 cm/s) – ELSD Detection / [row 6], ELSD Detection): 4.03 ×10⁻⁶ cm/s
Papp (PAMPA [6]; Papp (x 10^-6 cm/s) – ELSD Detection / [row 9], ELSD Detection): 4.31 ×10⁻⁶ cm/s
Papp (PAMPA [6]; Papp (x 10^-6 cm/s) – ELSD Detection / [row 10], ELSD Detection): 4.39 ×10⁻⁶ cm/s
Papp (PAMPA [6]; Papp (x 10^-6 cm/s) – ELSD Detection / [row 11], ELSD Detection): 3.96 ×10⁻⁶ cm/s
Papp (PAMPA [6]; Papp (x 10^-6 cm/s) – ELSD Detection / [row 12], ELSD Detection): 4.4 ×10⁻⁶ cm/s
Papp (PAMPA [6]; Papp (x 10^-6 cm/s) – ELSD Detection / [row 13], ELSD Detection): 5.05 ×10⁻⁶ cm/s
Papp (PAMPA [6]; Papp (x 10^-6 cm/s) – ELSD Detection / [row 14], ELSD Detection): 4.44 ×10⁻⁶ cm/s
Papp (PAMPA [6]; Papp (x 10^-6 cm/s) – ELSD Detection / [row 15], ELSD Detection): 4.01 ×10⁻⁶ cm/s
Papp (PAMPA [6]; Papp (x 10^-6 cm/s) – UV Detection / [row 1], UV Detection): 3.32 ×10⁻⁶ cm/s
Papp (PAMPA [6]; Papp (x 10^-6 cm/s) – UV Detection / [row 2], UV Detection): 4.01 ×10⁻⁶ cm/s
Papp (PAMPA [6]; Papp (x 10^-6 cm/s) – UV Detection / [row 3], UV Detection): 4.37 ×10⁻⁶ cm/s
Papp (PAMPA [6]; Papp (x 10^-6 cm/s) – UV Detection / [row 4], UV Detection): 3.67 ×10⁻⁶ cm/s
Papp (PAMPA [6]; Papp (x 10^-6 cm/s) – UV Detection / [row 5], UV Detection): 3.75 ×10⁻⁶ cm/s
Papp (PAMPA [6]; Papp (x 10^-6 cm/s) – UV Detection / [row 7], UV Detection): 3.19 ×10⁻⁶ cm/s
Papp (PAMPA [6]; Papp (x 10^-6 cm/s) – UV Detection / [row 8], UV Detection): 4 ×10⁻⁶ cm/s
Papp (PAMPA [6]; Papp (x 10^-6 cm/s) – UV Detection / [row 9], UV Detection): 3.36 ×10⁻⁶ cm/s
Papp (PAMPA [6]; Papp (x 10^-6 cm/s) – UV Detection / [row 10], UV Detection): 3.7 ×10⁻⁶ cm/s
Papp (PAMPA [6]; Papp (x 10^-6 cm/s) – UV Detection / [row 11], UV Detection): 3.24 ×10⁻⁶ cm/s
Papp (PAMPA [6]; Papp (x 10^-6 cm/s) – UV Detection / [row 12], UV Detection): 3.17 ×10⁻⁶ cm/s
Papp (PAMPA [6]; Papp (x 10^-6 cm/s) – UV Detection / [row 13], UV Detection): 3.78 ×10⁻⁶ cm/s
Papp (PAMPA [6]; Papp (x 10^-6 cm/s) – UV Detection / [row 14], UV Detection): 3.81 ×10⁻⁶ cm/s
Papp (PAMPA [6]; Papp (x 10^-6 cm/s) – UV Detection / [row 15], UV Detection): 3.57 ×10⁻⁶ cm/s

CCCCC[C@H](OC(=O)[C@@H](C)N(C)C(=O)[C@H](CCCCC)OC(=O)[C@@H](C)N(C)C(=O)[C@H](CCCCC)OC(=O)[C@@H](C)N(C)C(=O)[C@H](CCCCC)OC(=O)[C@@H](C)N(C)C(=O)[C@H](CCCCC)OC(=O)[C@@H](C)N(C)C(=O)[C@H](CCCCC)OC(=O)[C@@H](C)N(C)C(=O)OC(C)(C)C)C(=O)OCc1ccccc1 [Compound L1.6]
Diffusion (%) ([2]; C0 500 uM): < 5%
Recovery (%) [2, 9]: 84%
Papp [2, 10]: 0.42 ×10⁻⁶ cm/s
recovery [2, 11]: 83.7%
Acceptor Concentration, Ave ([2]; PAMPA, UV detection, C0 500 uM): < 25 µM
Δ % diffusion [2]: ↑2%
%T ([7]; Well 1 / %T, Well 1): 0.32% and 0.44%
%T ([7]; Well 2 / %T, Well 2): 0.37% and 0.33%
%T ([7]; Well 3 / %T, Well 3): 0.44% and 0.4%
%T ([7]; Well 4 / %T, Well 4): 0.41%
%T ([7]; Well 5 / %T, Well 5): 0.37%
donor concentration after incubation (Well 1 / [donor]): 435 µM and 410 µM
donor concentration after incubation (Well 2 / [donor]): 398 µM and 434 µM
donor concentration after incubation (Well 3 / [donor]): 424 µM and 410 µM
donor concentration after incubation (Well 4 / [donor]): 416 µM and 415 µM
donor concentration after incubation (Well 5 / [donor]): 403 µM and 438 µM
% recovery ([8]; Well 1 / %R, Well 1): 87% and 82%
% recovery ([8]; Well 2 / %R, Well 2): 80% and 87%
% recovery ([8]; Well 3 / %R, Well 3): 85% and 82%
% recovery ([8]; Well 4 / %R, Well 4): 83%
% recovery ([8]; Well 5 / %R, Well 5): 81% and 88%
Papp (PAMPA [6]; Papp (x 10^-6 cm/s) / experiment 1, UV detection): 0.4 ×10⁻⁶ cm/s
Papp (PAMPA [6]; Papp (x 10^-6 cm/s) / experiment 2, UV detection): 0.44 ×10⁻⁶ cm/s
Papp (PAMPA [6]; Papp (x 10^-6 cm/s) / experiment 3, UV detection): 0.41 ×10⁻⁶ cm/s
Papp (PAMPA [6]; Papp (x 10^-6 cm/s) / experiment 5, UV detection): 0.44 ×10⁻⁶ cm/s
Papp (PAMPA [6]; Papp (x 10^-6 cm/s) / experiment 6, UV detection): 0.43 ×10⁻⁶ cm/s
Papp (PAMPA [6]; Papp (x 10^-6 cm/s) / experiment 7, UV detection): 0.41 ×10⁻⁶ cm/s
Papp (PAMPA [6]; Papp (x 10^-6 cm/s) / experiment 8, UV detection): 0.43 ×10⁻⁶ cm/s
Papp (PAMPA [6]; Papp (x 10^-6 cm/s) / experiment 10, UV detection): 0.4 ×10⁻⁶ cm/s

— publication PMC11995216, “End-to-End Backbone Cyclization Enhances Passive Permeability of bRo5 Oligomeric Depsipeptides with Nonlinear Size Dependence” (ACS Medicinal Chemistry Letters, 2025)
